# Measurements published in the METLIN SMRT retention time set (Domingo-Almenara et al. 2019).
# Assay: gradient 5% acetonitrile 3 min, to 50% in 2 min, to 85% in 15 min, held 3 min, 100 µL/min
# Conditions: column: Zorbax Extend-C18 2.1 x 50 mm; eluents: water / acetonitrile, 0.1% formic acid
# Outline: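 A Zorbax Extend-C18 column (2.1 × 50 mm, 1.8 μm) run at 100 μL/min with water and acetonitrile, both containing 0.1% formic acid, separated mixtures of ~100 pure standards. The HPLC was coupled to a quadrupole time-of-flight mass spectrometer operated in positive and negative ionization mode, with dead and dwell volumes of 40 μL and 900 μL. Each retention time was taken from a computationally picked adduct peak that was then manually inspected.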
row,SMILES,RP-LC retention time [s]
1,CCCn1cc(C2=CCN(S(=O)(=O)c3cc(OC)ccc3OC)CC2)c2cccnc21,728
2,Cc1ccccc1CC(=O)N1CCC(n2c(=O)n(C)c3cncnc32)C1 (centres undefined),652
3,O=C(c1ccsc1)N1CCN(Cc2ccc(=O)n(CC3CC3)c2)CC1,543
4,Cc1nnc(C2CCCN(C(=O)c3nc4ccccc4s3)C2)s1 (centres undefined),736
5,CC[C@@H](c1cccc(O)c1)[C@@H](C)CN(C)C,633
6,CCOC(=O)CCCSc1nc2sc3c(c2c(=O)[nH]1)CCC3,870
7,Cn1cc(C2c3nccn3CCCN2S(=O)(=O)c2cccc(C(F)(F)F)c2)cn1 (centres undefined),656
8,Cc1c(Cl)cccc1NC(=O)C(C)C1CCN(C(=O)Nc2ccc(F)cc2)CC1 (centres undefined),904
9,C=CCN1C(=O)COc2ccc(-c3nc(NC(=O)C(F)(F)F)sc3C)cc21,932
10,CC(C)C(=O)Nc1ccc(-n2cnc(C(=O)N3CCN(C4CCCCC4)CC3)c2)nc1,601
11,CN(CC1CCOC1)C(=O)Nc1ccccc1C(F)(F)F (centres undefined),713
12,CN1C(=O)c2cc(C(=O)NCc3ccccc3)nn2CC1(C)C(=O)NC1CCCCCC1 (centres undefined),791
13,CC(C)Cc1ccc([C@@H](C)C(=O)NS(C)(=O)=O)cc1,1070
14,O=C(Nc1ccc(C2=NCCCN2)cc1)Nc1ccc(C2=NCCCN2)cc1,581
15,Cc1oc2c(c1C(=O)Nc1ccc(C(F)(F)F)cc1)C1=NC(C)(C)CN1C=N2,728
16,CC(C)Cc1ccc(S(=O)(=O)N2CCC3(CC2)c2nccn2CCN3C)cc1,777
17,COc1cccc(NS(=O)(=O)c2cc3n(c2)CCN(CC(C)C)C3=O)c1,784
18,Cc1ccccc1CN1C[C@@H]2C(=O)N(Cc3ccc4c(c3)OCO4)C(=O)[C@@H]2C1,824
19,CCC(C)NC(=O)N1CCN(c2cc(-c3ccc(OC)c(OC)c3)ncn2)CC1 (centres undefined),621
20,COc1ccc(NC(=O)CCC2CCCN(c3cc(NC4CC4)ncn3)C2)cc1OC (centres undefined),645
21,Cc1cc(C)cc(NC(=O)Cn2ccc3ccn(C)c3c2=O)c1,829
22,CCOCCn1c(=O)c2c(nc3n2CCCCN3c2ccc(OCC)cc2)n(C)c1=O,906
23,CCCn1cc(C(=O)NCCN(C)C)c(S(=O)(=O)N2CCN(c3ccc(Cl)cc3)CC2)n1,730

row,SMILES,RP-LC retention time [s]
1,CCCNc1cc(N2CCC(CCC(=O)NC(CC)CC)CC2)ncn1,656
2,CN(CC#N)C(=O)Cn1c(=O)c2cccn2c2ccccc21,705
3,CCOC(=O)N1CCN(S(=O)(=O)c2ccc(OCC)cc2OCC)CC1,858
4,Cc1cccc(NC(=O)CN2CCc3[nH]c4c(C)cc(F)cc4c(=O)c3C2)c1,626
5,N#Cc1cnc2ccccc2c1N1CCC(C(=O)N2CCSCC2)CC1,658
6,CCn1ncc(C(=O)N2CC[C@@H]3CN(S(C)(=O)=O)[C@@H]3C2)c1C,594
7,O=C1[C@@H]2[C@H]3CC[C@H](C3)[C@@H]2C(=O)N1C[C@@H]1CCCC[C@H]1CN1CCN(c2nsc3ccccc23)CC1,884
8,CC1CC(=O)NN=C1c1ccc(N)c([N+](=O)[O-])c1 (centres undefined),612
9,O=C(Nc1cc(F)ccc1F)C1CCCN(c2ncnc3c2nc2n3CCCCC2)C1 (centres undefined),774
10,Cc1ccc(CNC(=O)CSc2nc3nc(C)cc(C)n3n2)cc1,697
11,Cc1csc(CN2CCN(C(=O)c3cc(Cl)ccc3Cl)CC2)n1,654
12,COc1cccc(CNC(=O)C2(C)CCN(C(=O)Nc3ccc(C)c(Cl)c3)CC2)c1,930
13,CSc1ccc(NC(=O)C2CCCN(c3cnc4nc(C)c(C)nc4c3)C2)cc1 (centres undefined),819
14,CCOC(=O)CNC(=O)NCc1cccn1Cc1cc(C)ccc1C,888
15,COc1ccc(NC(=O)N2[C@H]3CC[C@@H]2c2cnc(-c4ccc(F)cc4)nc2C3)cc1OC,875
16,CCCCN1CCN(S(=O)(=O)c2cc(-c3nnc(CC)o3)co2)CC1,608
17,COC(=O)C1CCN(C(=O)C(=O)Nc2c3c(nn2-c2ccc(Cl)cc2)CSC3)CC1,671
18,Cc1ccc(NC(=O)N2CCC(N3CCN(Cc4ccc(F)cc4)C(=O)C3=O)CC2)cc1F,770
19,O=C(c1c(F)cccc1F)N1CCC2(CC1)N=C(c1ccc(Cl)cc1)NO2,847
20,O=C(Cn1c(=O)oc2ccccc21)N1CCN(C(=O)C2CC2c2cccs2)CC1 (centres undefined),738
21,Cc1ccc(C(=O)NC2CCCCCCC2)cc1NC(=O)C1=CSCCO1,949
22,CN(Cc1cccnc1)C(=O)c1c(OCC2CC2)cc(=O)n2c1CCCCC2,587

# Second part, the compound after the results:
row,RP-LC retention time [s],SMILES
1,869,O=C(Nc1nccs1)c1ccc2c(c1)CCCC2
2,744,COc1ccccc1NC(=O)N1CCC(CNC(=O)c2ccc(Br)o2)CC1
3,769,CC(C)CNC(=O)CCc1nc2ccccc2n(CC(=O)NCc2ccccc2)c1=O
4,1310,Cc1ccc(-c2csc(Cc3nc(-c4ccc(F)cc4)no3)n2)cc1
5,645,O=C(c1ccc(CS(=O)(=O)c2cccc(C(F)(F)F)c2)o1)N1CCN(c2ccccn2)CC1
6,1060,COc1ccccc1-c1noc(Cn2cnc3c(cnn3-c3ccc(Br)cc3)c2=O)n1
7,721,Cc1ccc(Nc2c(-c3ccc(O)cc3)nc3ccc(C)cn23)cc1
8,922,Cc1ccc(-c2nnc(-c3ccccc3)o2)cc1S(=O)(=O)N1CCOCC1
9,1110,COc1ccc(-c2nsc(SCC(=O)N3CCCc4ccccc43)n2)cc1
10,835,COC(=O)c1cnn2c(C)c(Cc3ccccc3)c(C)nc12
11,1040,CCOC(=O)CSc1nc2c(sc3ccccc32)c(=O)n1Cc1ccco1
12,690,COc1ccc(-c2nc3cnccn3c2Nc2ccc(OC)c(OC)c2)cc1
13,691,CC(=O)Nc1ccc(SCCCC(=O)Nc2nc3ccccc3s2)nn1
14,877,CCOc1ccc(Nc2c(-c3ccccc3)nc3cnccn23)cc1
15,708,Cc1cc(C)n(CCNC(=O)c2nc3ccccc3s2)n1
16,990,CCc1noc(-c2ccnc(-n3cnc(C(=O)Nc4ccc(F)cc4C)c3)c2)n1
17,774,CCC(C(=O)NCc1ccccc1)n1cnc2nc3c(cc2c1=O)CCCC3 (centres undefined)
18,953,CCOc1ccccc1NC(=O)C1CCN(S(=O)(=O)c2ccc3c(c2)NC(=O)C(CC)O3)CC1 (centres undefined)
19,933,CCCC(Nc1nc(C(=O)OCC)nc2ccccc12)c1cccs1 (centres undefined)
20,675,CC(=O)Nc1ccc2c(c1)CN(C(=O)c1ccccc1C(F)(F)F)C(C(=O)N(C)C)C2 (centres undefined)
21,571,O=C(NCC1CCCO1)C1CCCN(c2ccnc(-c3ccccc3)n2)C1 (centres undefined)
22,1050,CCCOc1ccc(C(=O)Nc2nnc(SCc3nnc(-c4ccccc4)o3)s2)cc1

row,RP-LC retention time [s],SMILES
1,605,O=C(c1cc2c(s1)-c1ccccc1S(=O)(=O)C2)N1CCN(c2ccccn2)CC1
2,750,O=C(Nc1ccccc1)N1CCN(c2ncccc2-c2nnc(C3CC3)o2)CC1
3,685,Cc1ccc(-c2ncc(C(=O)NC(C)c3ccccn3)c(-c3ccncc3)n2)cc1 (centres undefined)
4,665,COC(=O)Nc1ccc(-c2nc(N3CCOCC3)c3cnn(C4CCN(Cc5cccnc5)CC4)c3n2)cc1
5,988,COc1ccccc1NC(=O)Cn1c(C)cc(-c2nnc(-c3ccccc3)o2)c1C
6,938,Cn1nc(-c2nnc(-c3ccccc3)o2)c2c1CCN(S(=O)(=O)c1ccccc1Cl)C2
7,662,CC(NC(=O)C1=CCN(Cc2cccc(F)c2)CC1)c1ccccc1 (centres undefined)
8,1060,Cc1c(-c2noc(-c3ccccc3)n2)nnn1-c1ccccc1
9,761,Cc1nnsc1C(=O)N1CCC(CNC(=O)c2cc(-c3ccccc3)on2)CC1
10,1030,CCOC(=O)COC(=O)c1cn(-c2ccc(F)cc2)c(=O)c2ccccc12
11,996,COc1ccccc1-c1noc(C2CCCN2C(=O)c2ccc(C)s2)n1 (centres undefined)
12,524,CCn1c(CCc2cccc(NS(=O)(=O)c3cnc[nH]3)c2)nc2ccccc21
13,998,CCn1cc(SCC(=O)Nc2c(C)cc(C)cc2C)c2ccccc21
14,1220,Cc1nn(-c2nc(-c3ccc(F)cc3)cs2)c(C)c1CC(=O)N1CCc2ccccc2C1
15,900,O=C(Nc1nc2ccc(F)cc2s1)c1ccccc1Br
16,987,CCOc1cccc2cc(C(=O)Nc3nc(-c4ccccc4)cs3)c(=N)oc12
17,840,COc1ccc(CNC(=O)Nc2cc3c(cc2Oc2ccccc2)n(C)c(=O)n3C)cc1
18,687,O=C(c1ccc(Cn2cncn2)cc1)N1CCc2ccccc2C1
19,863,CCn1c(=O)n(CC(=O)NC(C)C)c(=O)c2cnc(-c3ccccc3)nc21
20,1030,O=C(Cn1cccc1-c1nnc(-c2ccccc2)o1)Nc1ccc(Cl)cc1
21,798,O=C(Nc1nnc(Cc2ccccc2)s1)C1CCN(C(=O)c2cccc(F)c2)CC1
22,963,O=C(c1ccccc1Br)N1CCc2nc(-c3ccccc3)ncc2C1
